Laboratory results: patent publication US20170328922A1, “METHODS AND PRODUCTS FOR LABELLING LIPIDS” (UNIVERSITY OF SOUTH AUSTRALIA, priority 2014, published 2017)

Experiments:
Type in all cases: binding
[1] = Rhenium molecular probe-lipid overlay (dot blot); set-up: key to interaction with Sphingomyline (dot blot): ✓ indicates a positive interaction; x indicates no interaction
Experimental: (§1) The experimental protocol probe-lipid overlay was as follows: 50 μM of each lipids was loaded on to PVDF membranes (Perkin Elmer, USA), which were then incubated with molecular probes. PhenCyano and PhenPyridyl were assessed against eleven lipids including; sphingomyelin (Cat # S0756, Sigma Aldrich, USA), sphingosine (Cat # S7049; Sigma Aldrich, USA), L-phosphatidylethanolamine (Cat # P7943, Sigma Aldrich, USA), monosialodanglioside (GM1; Cat # G7641, Sigma Aldrich, USA), oleoly-L-?-lysophosphatidic acid (Cat # L7260, Sigma Aldrich, USA), palmitic acid (Cat # P5917, Sigma Aldrich, USA), sphingomyelin (Cat # S0756, Sigma Aldrich, USA), sphingosine (Cat # S7049; Sigma Aldrich, USA), L-?-phosphatidylethanolamine (Cat # P7943, Sigma Aldrich, USA), monosialodanglioside (GM1; Cat # G7641, Sigma Aldrich, USA), progesterone (Cat #102722, MP Biomedical, USA), ceramide (Cat # C2137; Sigma Aldrich, USA), triacylglycerol mix C2-C10 (Cat #17810, Sigma Aldrich, USA) and cholesteryl acetate (Cat #151114; Sigma Aldrich, USA).
(§2) All other molecular probes were assessed against a panel of six lipids including; sphingomyelin (Cat # S0756, Sigma Aldrich, USA), sphingosine (Cat # S7049; Sigma Aldrich, USA), L-?-phosphatidylethanolamine (Cat # P7943, Sigma Aldrich, USA), monosialodanglioside (GM1; Cat # G7641, Sigma Aldrich, USA), sphingomyelin (Cat # S0756, Sigma Aldrich, USA), sphingosine (Cat # S7049; Sigma Aldrich, USA), L-?-phosphatidylethanolamine (Cat # P7943, Sigma Aldrich, USA), monosialodanglioside (GM1; Cat # G7641, Sigma Aldrich, USA) and triacylglycerol mix C2-C10 (Cat #17810, Sigma Aldrich, USA).
(§3) Lipids were dissolved in ethanol, methanol or isopropanol for loading depending on solubility. Following lipid loading, membranes were left to dry for 20-30 minutes, then they were washed for 10 minutes in cold 10% ethanol, before they were incubated with 10 μM solution of each Rhenium molecular probe in cold 10% ethanol for one hour. Membranes were than washed four times for 10 minutes in cold 10% ethanol prior to imaging. Imaging was performed on an Image Quant Las 4000 (GE, Sweden) luminescent image analyser, with the Rhenium molecular probe being detected by excitation at 460 nm using an epi-blue light source, and detected using an 575 nm ethidium bromide filter.

[2] = Rhenium molecular probe-lipid overlay (dot blot); set-up: key to interaction with GM1 (dot blot): ✓ indicates a positive interaction; x indicates no interaction
Experimental: as §1, §2, §3

[3] = Rhenium molecular probe-lipid overlay (dot blot); set-up: key to interaction with Progesterone (dot blot): ✓ indicates a positive interaction; x indicates no interaction
Experimental: as §1, §3

[4] = Rhenium molecular probe-lipid overlay (dot blot); set-up: key to interaction with Ceramide (dot blot): ✓ indicates a positive interaction; x indicates no interaction
Experimental: as §1, §3

[5] = Rhenium molecular probe-lipid overlay (dot blot); details: FIG. 7
Experimental: as §1
Lipids were dissolved in ethanol, methanol or isopropanol for loading depending on solubility. […] Imaging was performed on an Image Quant Las 4000 (GE, Sweden) luminescent image analyser, with the Rhenium molecular probe being detected by excitation at 460 nm using an epi-blue light source, and detected using an 575 nm ethidium bromide filter.

[6] = Rhenium molecular probe-lipid overlay (dot blot); details: FIG. 7
Experimental: as §1, §3

[7] = Rhenium probe-lipid overlay, Example 5
Experimental: To determine the binding properties of tricarbonyl-(4-cyanophenyltretrazolato)-phenanthroline-rhenium (I) (Rhenium probe) to various lipids, Rhenium probe-lipid overlay was performed using either lipids spotted onto PDVF membranes (Perkin Elmer, USA) or lipid MicroStrips (Echelon Biosciences Inc., Salt Lake City, Utah). The membranes contained at least 100 pmoles of each lipid in individual spots (supplementary table 1) or 10 μL (each in PBS) of 10% (v/v) glycerol, 1% (v/v) CHAPS, 1% (w/v) SDS, 1% (v/v) Tween20, Ecydsone (10 μg/100 μL), cholesterol (10 μg/100 μL), progesterone (10 μg/100 μL), PBS, or 1% (v/v) ethanol; and were incubated with 0.5 mM of Rhenium probe in 1% (w/v) BSA/PBS for 40 minutes and then washed four times for 10 minutes in PBS. Imaging was performed on an Image Quant Las 4000 (GE, Sweden) luminescent image analyser, with the Rhenium probe being detected by excitation at 460 nm using an epi-blue light source, and detected using an 605 nm ethidium bromide filter.

[8] = 10 μM probe, 50 μM lipid on PVDF membrane
[9] = 0.5 mM probe in 1% BSA/PBS, FIG. 6

Compound: N#Cc1ccc(-c2nn[n]([Re](=[C]=O)(=[C]=O)=[C]=O)n2)cc1.c1cnc2c(c1)ccc1cccnc12 [PhenCyano, Triscarbonyl phenanthroline (4-cyanophenyltetrazolato)Rhenium(I)]
- interaction with Sphingomyline (dot blot) [1, 8]: ✓
- affinity towards sphingomyelin, in words ([1]; FIG. 7 / FIG. 8): some affinity
- interaction with GM1 (dot blot) [2, 8]: ✓
- affinity towards monosialotetrahexosylganglioside (GM1), in words ([2]; FIG. 7 / FIG. 8): some affinity
- interaction with Progesterone (dot blot) [3, 8]: ✓
- affinity towards progesterone, in words ([3]; FIG. 7): some affinity
- interaction with Ceramide (dot blot) [4, 8]: x
- interaction with ceramide, in words ([4]; FIG. 7): no interaction detected
- interaction with fatty acid (palmitic acid), in words [5]: no interaction detected
- interaction with cholesterol ester (cholesteryl acetate), in words [6]: no interaction detected
- reactivity with long chain fatty acids ([7]; 0.5 mM probe in 1% BSA/PBS): did not react
- reactivity with neutral lipids ([7]; 0.5 mM probe in 1% BSA/PBS): did not react
- interaction with cholesterol [7, 9]: interacted
- interaction with ecdysone [7, 9]: interacted
- interaction with progesterone [7, 9]: interacted
- reactivity with CHAPS [7, 9]: high level of reactivity
- reactivity with deoxycholate [7, 9]: high level of reactivity
- reactivity with SDS ([7]; auto-reactivity of SDS alone at 575-605 nm on membrane): some residual background reactivity
- reactivity with Tween® 20 ([7]; auto-reactivity of Tween 20 alone at 575-605 nm on membrane): some residual background reactivity
